Test results from patent US20260078119A1, “DEGRADER COMPOUNDS AND USES THEREOF” (Bristol-Myers Squibb Company, priority 2024, published 2026).

Target: T1, FAK (Homo sapiens, UniProt Q05397)
T1 construct: homozygous knock-in of a HiBiT tag (Promega Corporation, Madison, WI) to the C-terminus of the FAK gene in its natural genomic locus; endogenous in cells; host or cells: JHH-4-FAK-HiBiT clone d01 (CRISPR-Cas9 knock-in at the endogenous locus)
Assay: FAK-HiBiT Degradation Assay
Format: cell-based
Details: for DC50: read-out: FAK HiBiT EC50; for FAK HiBiT Ymin: lower limit of the four parameter fit (value A), Ymax derived using DMSO control, JHH-4-FAK-HiBiT cells, two hours
Text: To generate JHH-4-FAK-HiBiT cells for the FAK degradation assay, JHH-4 cells (Japanese Collection of Research Biosources Cell Bank, Japan) were transfected with ribonucleoprotein reagents to introduce, by CRISPR-Cas9 editing, the homozygous knock-in of a HiBiT tag (Promega Corporation, Madison, WI) to the C-terminus of the FAK gene in its natural genomic locus. Clonal cell populations were established by expanding single cells after CRISPR-Cas9 editing, with a clonal cell line named JHH-4-FAK-HiBiT clone d01 confirmed by next generation DNA sequencing to contain the expected HiBiT edited FAK gene and was selected for FAK degradation screening. Cells were selected and maintained in complete DMEM media (DMEM, 10% Heat Inactivated FBS, and Non-Essential Amino Acids at 37° C. and 5% CO2). Cells were passaged every 3-4 days by reseeding 0.5×10^6 cells in a T75 flask.
Cells were dispensed into 384-well white plates (Corning #3570, NY) that were pre-spotted with compounds using an acoustic dispenser (Echo acoustic transfer system, Beckman Coulter Life Sciences, Carlsbad, CA) as a 10-point dose response curve with a 3-fold dilution starting at 1 μM and including a DMSO control. Twenty-five microliters of media containing 2000 JHH-4-FAK-HiBiT Clone d01 cells was dispensed per well. Assay plates were incubated at 37° C. with 5% CO2 for two hours. After incubation, 25 μL of Nano-Glo HiBiT Lytic Reagent Working Solution (Promega Corporation, Madison, WI) was added to each well and incubated at room temperature for 10 minutes protected from light. After 10 minutes, luminescence was read on a PHERAstar luminometer (BMG Labtech, Cary, NC).
To determine the half-maximal effective concentration (EC50) values for FAK-HiBIT degradation, a four parameter logistic model was used: (Sigmoidal Dose-Response Model)(FIT=(A+((B−A)/1+((C/x)^D)))) where C is the inflection point (EC50), D is the Hill slope, and A and B are the low and high limits of the fit respectively). The lower limit of the fit (value A) is referred to as Ymin. The maximum limit constraint, Ymax, was derived using DMSO control. The curves were processed and evaluated using Dotmatics Atlas (Insightful Science, LLC, Boston, MA).

[1] = JHH-4-FAK-HiBiT clone d01 cells, two hours incubation, 10-point dose response, 3-fold dilution starting at 1 μM, Nano-Glo HiBiT luminescence

T1 sequence (Q05397 whole entry): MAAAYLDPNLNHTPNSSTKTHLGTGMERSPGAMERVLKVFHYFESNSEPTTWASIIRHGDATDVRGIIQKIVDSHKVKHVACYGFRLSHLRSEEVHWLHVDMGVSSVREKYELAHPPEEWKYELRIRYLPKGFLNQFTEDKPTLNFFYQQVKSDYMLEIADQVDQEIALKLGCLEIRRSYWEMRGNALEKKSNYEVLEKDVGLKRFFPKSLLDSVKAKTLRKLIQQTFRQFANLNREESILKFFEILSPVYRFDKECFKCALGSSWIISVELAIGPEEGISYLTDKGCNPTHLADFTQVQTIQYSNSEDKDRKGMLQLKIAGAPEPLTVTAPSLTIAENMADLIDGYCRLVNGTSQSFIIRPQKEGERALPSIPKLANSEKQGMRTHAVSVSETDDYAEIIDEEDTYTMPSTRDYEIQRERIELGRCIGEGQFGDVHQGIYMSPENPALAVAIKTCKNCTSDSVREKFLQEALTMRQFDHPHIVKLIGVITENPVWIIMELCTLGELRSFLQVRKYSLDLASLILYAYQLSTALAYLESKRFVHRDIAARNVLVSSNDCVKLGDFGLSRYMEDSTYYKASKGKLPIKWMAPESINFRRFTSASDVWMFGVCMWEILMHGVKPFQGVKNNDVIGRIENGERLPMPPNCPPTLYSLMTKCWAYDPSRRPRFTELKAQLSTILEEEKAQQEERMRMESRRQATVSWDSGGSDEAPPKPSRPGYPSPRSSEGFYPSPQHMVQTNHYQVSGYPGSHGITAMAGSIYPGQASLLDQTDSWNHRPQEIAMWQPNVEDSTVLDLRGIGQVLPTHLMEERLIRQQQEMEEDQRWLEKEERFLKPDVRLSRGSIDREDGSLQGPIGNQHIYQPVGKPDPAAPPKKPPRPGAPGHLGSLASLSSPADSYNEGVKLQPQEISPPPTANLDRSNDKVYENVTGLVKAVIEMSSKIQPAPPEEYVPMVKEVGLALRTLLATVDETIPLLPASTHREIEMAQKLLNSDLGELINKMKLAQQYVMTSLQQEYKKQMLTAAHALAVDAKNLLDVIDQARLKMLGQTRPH

| DC50 [1] [µM] | FAK HiBiT Ymin | EC50 [1] [µM] | SMILES |
| --- | --- | --- | --- |
| 0.0305 | 13.98 |  | CC(C)Nc1cc(-c2ncc(C#N)cc2Cl)c2cnn(Cc3ccc4c(c3)CN(C3CCC(=O)NC3=O)C4=O)c2n1 (stereo not shown) [Example 103, 5-chloro-6-(1-{[2-(2,6-dioxopiperidin-3-yl)-1-oxo-2,3-dihydro-1H-isoindol-5-yl]methyl}-6-[(propan-2-yl)amino]-1H-pyrazolo[3,4-b]pyridin-4-yl)pyridine-3-carbonitrile] |
| 0.00357 | 9.10 |  | Cc1nn(Cc2ccc3c(c2)CN(C2CCC(=O)NC2=O)C3=O)c2nc(N3CCC3)cc(-c3ccc(C#N)cc3Cl)c12 (stereo not shown) [Example 60, 4-[6-(azetidin-1-yl)-1-{[2-(2,6-dioxopiperidin-3-yl)-1-oxo-2,3-dihydro-1H-isoindol-5-yl]methyl}-3-methyl-1H-pyrazolo[3,4-b]pyridin-4-yl]-3-chlorobenzonitrile] |
| 0.0737 | 25.54 |  | CC(C)Nc1cc(-c2ncccc2Cl)c2cnn(Cc3ccc4c(c3)CN(C3CCC(=O)NC3=O)C4=O)c2n1 (stereo not shown) [Example 117, 3-(5-{[4-(3-chloropyridin-2-yl)-6-[(propan-2-yl)amino]-1H-pyrazolo[3,4-b]pyridin-1-yl]methyl}-1-oxo-2,3-dihydro-1H-isoindol-2-yl)piperidine-2,6-dione] |
| 0.00343 | 7.90 |  | N#Cc1ccc(-c2cc(N3CCC3)nc3c2cnn3Cc2ccc3c(c2)CN(C2CCC(=O)NC2=O)C3=O)c(Cl)c1 (stereo not shown) [Example 58, 4-[6-(azetidin-1-yl)-1-{[2-(2,6-dioxopiperidin-3-yl)-1-oxo-2,3-dihydro-1H-isoindol-5-yl]methyl}-1H-pyrazolo[3,4-b]pyridin-4-yl]-3-chlorobenzonitrile] |
| 0.00837 | 4.01 |  | CN(C)c1cc(-c2ccc(C#N)cc2Cl)c2ncn(Cc3ccc4c(c3)CN(C3CCC(=O)NC3=O)C4=O)c2n1 (stereo not shown) [Example 18] |
| 0.013 | 10.98 |  | O=C1CCC(N2Cc3cc(Cn4ncc5c(-c6ncccc6Cl)cc(N6CCC6)nc54)ccc3C2=O)C(=O)N1 (stereo not shown) [Example 88, 3-(5-{[6-(azetidin-1-yl)-4-(3-chloropyridin-2-yl)-1H-pyrazolo[3,4-b]pyridin-1-yl]methyl}-1-oxo-2,3-dihydro-1H-isoindol-2-yl)piperidine-2,6-dione] |
| ≥ 1 | 93.99 |  | Cc1ncccc1-c1cc(N2CC(F)C2)nc2c1cnn2Cc1ccc2c(c1)CN(C1CCC(=O)NC1=O)C2=O (stereo not shown) [Example 139, 3-(5-{[6-(3-fluoroazetidin-1-yl)-4-(2-methylpyridin-3-yl)-1H-pyrazolo[3,4-b]pyridin-1-yl]methyl}-1-oxo-2,3-dihydro-1H-isoindol-2-yl)piperidine-2,6-dione] |
| 0.0796 | 12.49 |  | N#Cc1ccc(-c2cc(N3CCC3)nc3c2cnn3Cc2cnc3c(c2)CN(C2CCC(=O)NC2=O)C3=O)c(Cl)c1 (stereo not shown) [Example 118, 4-[6-(azetidin-1-yl)-1-{[6-(2,6-dioxopiperidin-3-yl)-7-oxo-5H,6H,7H-pyrrolo[3,4-b]pyridin-3-yl]methyl}-1H-pyrazolo[3,4-b]pyridin-4-yl]-3-chlorobenzonitrile] |
| 0.0125 | 35.59 |  | O=C1CCC(N2Cc3cc(Cn4ncc5c(-c6ncc(C7CC7)cc6F)cc(N6CC(F)C6)nc54)ccc3C2=O)C(=O)N1 (stereo not shown) [Example 86, 3-(5-{[4-(5-cyclopropyl-3-fluoropyridin-2-yl)-6-(3-fluoroazetidin-1-yl)-1H-pyrazolo[3,4-b]pyridin-1-yl]methyl}-1-oxo-2,3-dihydro-1H-isoindol-2-yl)piperidine-2,6-dione] |
| 0.0056 | 13.38 |  | N#Cc1ccc(-c2cc(N3CCC3)nc3c2c(Cl)nn3Cc2ccc3c(c2)CN(C2CCC(=O)NC2=O)C3=O)c(Cl)c1 (stereo not shown) [Example 70, 4-[6-(azetidin-1-yl)-3-chloro-1-{[2-(2,6-dioxopiperidin-3-yl)-1-oxo-2,3-dihydro-1H-isoindol-5-yl]methyl}-1H-pyrazolo[3,4-b]pyridin-4-yl]-3-chlorobenzonitrile] |
|  | 4.03 | 0.00786 | CN(C)c1cc(-c2ncc(C#N)cc2Cl)c2ccn(Cc3ccc4c(c3)CN(C3CCC(=O)NC3=O)C4=O)c2n1 (stereo not shown) [Example 13, 5-chloro-6-(6-(dimethylamino)-1-((2-(2,6-dioxopiperidin-3-yl)-1-oxoisoindolin-5-yl)methyl)-1H-pyrrolo[2,3-b]pyridin-4-yl)nicotinonitrile] |
| 0.124 | 43.76 |  | CC(C)(O)c1ccc(Cl)c(-c2cc(N3CCC3)nc3c2cnn3Cc2ccc3c(c2)CN(C2CCC(=O)NC2=O)C3=O)c1 (stereo not shown) [Example 124, 3-(5-{[6-(azetidin-1-yl)-4-[2-chloro-5-(2-hydroxypropan-2-yl)phenyl]-1H-pyrazolo[3,4-b]pyridin-1-yl]methyl}-1-oxo-2,3-dihydro-1H-isoindol-2-yl)piperidine-2,6-dione] |
| 0.00868 | 2.64 |  | CN(C)c1nc(-c2ccc(C#N)cc2Cl)c2ccn(Cc3ccc4c(c3)CN(C3CCC(=O)NC3=O)C4=O)c2n1 (stereo not shown) [Example 27, 3-chloro-4-(2-(dimethylamino)-7-((2-(2,6-dioxopiperidin-3-yl)-1-oxoisoindolin-5-yl)methyl)-7H-pyrrolo[2,3-d]pyrimidin-4-yl)benzonitrile] |
| 0.0103 | 19.19 |  | N#Cc1cnc(-c2cc(N3CCC3)nc3c2cnn3Cc2ccc3c(c2)CN(C2CCC(=O)NC2=O)C3=O)c(F)c1 (stereo not shown) [Example 84, 6-[6-(azetidin-1-yl)-1-{[2-(2,6-dioxopiperidin-3-yl)-1-oxo-2,3-dihydro-1H-isoindol-5-yl]methyl}-1H-pyrazolo[3,4-b]pyridin-4-yl]-5-fluoropyridine-3-carbonitrile] |
| 0.00519 | 15.10 |  | CC(C)Nc1cc(-c2ccc(C#N)cc2Cl)c2cnn(Cc3ccc4c(c3)CN(C3CCC(=O)NC3=O)C4=O)c2n1 (stereo not shown) [Example 68, 3-chloro-4-(1-{[2-(2,6-dioxopiperidin-3-yl)-1-oxo-2,3-dihydro-1H-isoindol-5-yl]methyl}-6-[(propan-2-yl)amino]-1H-pyrazolo[3,4-b]pyridin-4-yl)benzonitrile] |
| 0.00567 | 11.11 |  | N#Cc1ccc(-c2cc(N3CC(F)C3)nc3c2cnn3Cc2ccc3c(c2)CN(C2CCC(=O)NC2=O)C3=O)c(F)c1 (stereo not shown) [Example 71, 4-(1-{[2-(2,6-dioxopiperidin-3-yl)-1-oxo-2,3-dihydro-1H-isoindol-5-yl]methyl}-6-(3-fluoroazetidin-1-yl)-1H-pyrazolo[3,4-b]pyridin-4-yl)-3-fluorobenzonitrile] |
| 0.0672 | 34.23 |  | CC(C)Nc1cc(-c2ccncc2Cl)c2cnn(Cc3ccc4c(c3)CN(C3CCC(=O)NC3=O)C4=O)c2n1 (stereo not shown) [Example 116, 3-(5-{[4-(3-chloropyridin-4-yl)-6-[(propan-2-yl)amino]-1H-pyrazolo[3,4-b]pyridin-1-yl]methyl}-1-oxo-2,3-dihydro-1H-isoindol-2-yl)piperidine-2,6-dione] |
| 0.0467 | 18.51 |  | Cc1cccnc1-c1cc(N2CC(F)C2)nc2c1cnn2Cc1ccc2c(c1)CN(C1CCC(=O)NC1=O)C2=O (stereo not shown) [Example 112, 3-(5-{[6-(3-fluoroazetidin-1-yl)-4-(3-methylpyridin-2-yl)-1H-pyrazolo[3,4-b]pyridin-1-yl]methyl}-1-oxo-2,3-dihydro-1H-isoindol-2-yl)piperidine-2,6-dione] |
| 0.00392 | 12.88 |  | N#Cc1ccc(-c2cc(N3CCC3)nc3c2cnn3Cc2ccc3c(c2)CN(C2CCC(=O)NC2=O)C3=O)c(F)c1 (stereo not shown) [Example 62, 4-[6-(azetidin-1-yl)-1-{[2-(2,6-dioxopiperidin-3-yl)-1-oxo-2,3-dihydro-1H-isoindol-5-yl]methyl}-1H-pyrazolo[3,4-b]pyridin-4-yl]-3-fluorobenzonitrile] |

| SMILES | DC50 [1] [µM] | FAK HiBiT Ymin | EC50 [1] [µM] |
| --- | --- | --- | --- |
| CC(C)Nc1cc(-c2ncc(C#N)cc2F)c2cnn(Cc3ccc4c(c3)CN(C3CCC(=O)NC3=O)C4=O)c2n1 (stereo not shown) [Example 137, 6-(1-{[2-(2,6-dioxopiperidin-3-yl)-1-oxo-2,3-dihydro-1H-isoindol-5-yl]methyl}-6-[(propan-2-yl)amino]-1H-pyrazolo[3,4-b]pyridin-4-yl)-5-fluoropyridine-3-carbonitrile] | ≥ 1 | 81.91 |  |
